According to PubChem BioAssay AID2060511 (Molecular Pharmacology Branch, DTP, NCI, 2025):
pIC50: −log10 of the molar value.

Test system: 422866-222-R5-J1-PDC spheroids with HUVEC/MSC, viability
Assay: Anticancer human tumor 422866-222-R5-J1-PDC patient-derived pancreatic adenocarcinoma cell line growth inhibition [GQUAD]
Conditions: for pIC50: curve of first compound; for viability, T/C: stronger effect = lower value
Source text: DNA G-quadruplex Stabilizer Agents in Combinations in Complex Spheroids
A high-throughput screen of multi-cell type tumor spheroids was designed to identify active combinations of DNA G-quadruplex stabilizer agents and targeted small molecules. Complex spheroids include a stromal component modeled by human endothelial cells (HUVEC) and fibroblasts modeled by human mesenchymal stem cells (MSCs). The concentration ranges selected for each drug and investigational agent were based upon clinically achievable concentrations if the clinical Cmax of the agent was known.
Compounds. The drugs and investigational agents: pidnarulex (CX-5461; NSC782164), APTO-253 (NSC789042), BRACO-19 (NSC847499), peposertib (NSC802822), ceralasertib (NSC780249), elimusertib (NSC800525), camonsertib (NSC841442), AZD-1390 (NSC803789), olaparib (NSC753686), talazoparib (NSC767125), ART-558 (NSC835418), sotorasib (NSC818433), MRTX-1133 (NSC836407), SN-38 (NSC673596), topotecan (NSC609699), etoposide (NSC141540), doxorubicin (NSC123127), gemcitabine (NSC613327), 5-fluorouracil (NSC19893), paclitaxel (NSC125973), vemurafenib (NSC761431), panobinostat (NSC761190), R-306465 (JNJ-16241199; NSC773264), adavosertib (NSC754352), TP-3654 (NSC805149), carboplatin (NSC241240), KSQ-4279 (NSC840948), and staurosporine (NSC755774) were obtained from the National Cancer Institute (NCI) Developmental Therapeutics Program Chemical Repository (34). The FDA-approved anticancer drug set is available from the NCI Developmental Therapeutics Program. […] The stock solutions were prepared in dimethyl sulfoxide (DMSO, Sigma-Aldrich, St. Louis, MO, cat. D2650) at 800-fold the tested concentration and stored at -70 degrees C prior to their use. All drugs and investigational agents were tested over a range starting from a high concentration at or near the clinical Cmax and decreasing in half-log increments. If the clinical Cmax for an agent had not been determined, the highest concentration tested was 10 microM.
2.3 Cell Culture. All cells were maintained in an incubator at 37 degrees C and 5% CO2 with 95% humidity. The PDC lines were cultured according to standard operating procedures established by the NCI PDMR. All PDCs were thawed and cultured in Matrigel-coated flasks prepared with a working solution of 1X Ham's F-12 nutrient mix, without supplementation (Invitrogen, cat. 11765054), 100 U/mL penicillin-streptomycin (Invitrogen, cat. 15140122), and 2.5% Matrigel (Corning Inc., cat. 354248) for the first three passages. The 857933-349-R-J2-PDC line was cultured in 6C/Colon 1B media, which includes advanced DMEM/F-12 (Thermo Fisher Scientific, cat. 12634028), 10 mM HEPES (Thermo Fisher Scientific, cat. 15630080), 1X GlutaMAX supplement (Thermo Fisher Scientific, cat. 35050061), 0.1 mg/mL primocin (InvivoGen, cat. ant-pm-2), 10% defined fetal bovine serum, heat inactivated (HyClone Laboratories Inc., cat. SH30070.03HI), 50% L-WRN conditioned media (ATCC, cat. CRL-3276), 1.25 mM N-Acetyl-L-cysteine (Sigma-Aldrich, cat. A9165), 10 mM nicotinamide (Sigma-Aldrich, cat. N0636), 1X B-27 supplement (Thermo Fisher Scientific, cat. 17504044), 1X N-2 supplement (Thermo Fisher Scientific, cat. 17502048), 10 microM Y-27632 dihydrochloride (Tocris Bioscience, cat. 1254), and 50 ng/mL human EGF recombinant protein (Thermo Fisher Scientific, cat. PHG0311). The 485176-168-R4-J1-PDC line was cultured in Panc media, which includes all 6C/Colon 1B media components plus 100 ng/mL human FGF-10 (Thermo Fisher Scientific, cat. 100-26), 500 nM SB-431542 (Selleckchem, cat. S1067), and gastrin (Tocris, cat. 3006).
[…]

[1] = second compound 0.0316 µM, first compound 0.0316 µM
[2] = second compound 0.0316 µM, first compound 0.316 µM
[3] = second compound 0.1 µM, first compound 0.0316 µM
[4] = second compound 0.1 µM, first compound 0.316 µM
[5] = second compound 0.316 µM, first compound 0.0316 µM
[6] = second compound 0.316 µM, first compound 0.316 µM
[7] = second compound 1 µM, first compound 0.0316 µM
[8] = second compound 1 µM, first compound 0.316 µM
[9] = second compound 3.16 µM, first compound 0.0316 µM
[10] = second compound 3.16 µM, first compound 0.316 µM
[11] = second compound 10 µM, first compound 0.0316 µM
[12] = second compound 10 µM, first compound 0.316 µM
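Note: spheroids exposed to compounds for seven days before reading.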
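Throughout, for viability, T/C: percent viability relative to DMSO vehicle control taken as 100%.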

COc1ccc([C@@H](O)c2cc(-c3ncnc4cc(N5CCOCC5)ccc34)c(F)cc2Cl)nn1 + Cc1[nH]c2ccc(F)cc2c1-c1nc2c3cccnc3c3ncccc3c2[nH]1
pIC50 (second compound 0.0316 µM): 5.38
pIC50 (second compound 0.1 µM): 5.24
pIC50 (second compound 0.316 µM): 5.49
pIC50 (second compound 1 µM): 5.35
pIC50 (second compound 3.16 µM): 5.58
pIC50 (second compound 10 µM): 5.67
viability, T/C [1]: 81.2%
viability, T/C (second compound 0.0316 µM, first compound 0.1 µM): 79.2%
viability, T/C [2]: 72.2%
viability, T/C (second compound 0.0316 µM, first compound 1 µM): 68%
viability, T/C (second compound 0.0316 µM, first compound 3.16 µM): 54.7%
viability, T/C (second compound 0.0316 µM, first compound 10 µM): 35.8%
viability, T/C [3]: 90.6%
viability, T/C (second compound 0.1 µM, first compound 0.1 µM): 78.8%
viability, T/C [4]: 68.6%
viability, T/C (second compound 0.1 µM, first compound 1 µM): 60.2%
viability, T/C (second compound 0.1 µM, first compound 3.16 µM): 62.5%
viability, T/C (second compound 0.1 µM, first compound 10 µM): 42.1%
viability, T/C [5]: 95.4%
viability, T/C (second compound 0.316 µM, first compound 0.1 µM): 82.4%
viability, T/C [6]: 74.9%
viability, T/C (second compound 0.316 µM, first compound 1 µM): 60.6%
viability, T/C (second compound 0.316 µM, first compound 3.16 µM): 51.3%
viability, T/C (second compound 0.316 µM, first compound 10 µM): 38.8%
viability, T/C [7]: 75.6%
viability, T/C (second compound 1 µM, first compound 0.1 µM): 81.8%
viability, T/C [8]: 66.9%
viability, T/C (second compound 1 µM, first compound 1 µM): 62.8%
viability, T/C (second compound 1 µM, first compound 3.16 µM): 57.5%
viability, T/C (second compound 1 µM, first compound 10 µM): 38.5%
viability, T/C [9]: 80.7%
viability, T/C (second compound 3.16 µM, first compound 0.1 µM): 73%
viability, T/C [10]: 65.4%
viability, T/C (second compound 3.16 µM, first compound 1 µM): 64.8%
viability, T/C (second compound 3.16 µM, first compound 3.16 µM): 45.3%
viability, T/C (second compound 3.16 µM, first compound 10 µM): 34.6%
viability, T/C [11]: 64.2%
viability, T/C (second compound 10 µM, first compound 0.1 µM): 69%
viability, T/C [12]: 78.5%
viability, T/C (second compound 10 µM, first compound 1 µM): 57.1%
viability, T/C (second compound 10 µM, first compound 3.16 µM): 46.2%
viability, T/C (second compound 10 µM, first compound 10 µM): 33.9%

Cn1ncnc1[C@H]1c2n[nH]c(=O)c3cc(F)cc(c23)N[C@@H]1c1ccc(F)cc1 + Cc1[nH]c2ccc(F)cc2c1-c1nc2c3cccnc3c3ncccc3c2[nH]1
pIC50 (second compound 0.0316 µM): < 6.50
pIC50 (second compound 0.1 µM): < 6.50
pIC50 (second compound 0.316 µM): < 6.50
pIC50 (second compound 1 µM): < 6.50
pIC50 (second compound 3.16 µM): < 6.50
pIC50 (second compound 10 µM): < 6.50
viability, T/C (second compound 0.0316 µM, first compound 0.000999 µM): 92.4%
viability, T/C (second compound 0.0316 µM, first compound 0.00316 µM): 92.3%
viability, T/C (second compound 0.0316 µM, first compound 0.00999 µM): 105%
viability, T/C [1]: 91.8%
viability, T/C (second compound 0.0316 µM, first compound 0.0999 µM): 86.5%
viability, T/C [2]: 81.9%
viability, T/C (second compound 0.1 µM, first compound 0.000999 µM): 99.5%
viability, T/C (second compound 0.1 µM, first compound 0.00316 µM): 102%
viability, T/C (second compound 0.1 µM, first compound 0.00999 µM): 102%
viability, T/C [3]: 89.5%
viability, T/C (second compound 0.1 µM, first compound 0.0999 µM): 97.3%
viability, T/C [4]: 86.8%
viability, T/C (second compound 0.316 µM, first compound 0.000999 µM): 105%
viability, T/C (second compound 0.316 µM, first compound 0.00316 µM): 114%
viability, T/C (second compound 0.316 µM, first compound 0.00999 µM): 83.2%
viability, T/C [5]: 91.2%
viability, T/C (second compound 0.316 µM, first compound 0.0999 µM): 91.4%
viability, T/C [6]: 97.3%
viability, T/C (second compound 1 µM, first compound 0.000999 µM): 89.6%
viability, T/C (second compound 1 µM, first compound 0.00316 µM): 109%
viability, T/C (second compound 1 µM, first compound 0.00999 µM): 104%
viability, T/C [7]: 108%
viability, T/C (second compound 1 µM, first compound 0.0999 µM): 94.3%
viability, T/C [8]: 80.8%
viability, T/C (second compound 3.16 µM, first compound 0.000999 µM): 93.1%
viability, T/C (second compound 3.16 µM, first compound 0.00316 µM): 82.8%
viability, T/C (second compound 3.16 µM, first compound 0.00999 µM): 80.4%
viability, T/C [9]: 78.8%
viability, T/C (second compound 3.16 µM, first compound 0.0999 µM): 94.3%
viability, T/C [10]: 81.9%
viability, T/C (second compound 10 µM, first compound 0.000999 µM): 87.5%
viability, T/C (second compound 10 µM, first compound 0.00316 µM): 92.7%
viability, T/C (second compound 10 µM, first compound 0.00999 µM): 87%
viability, T/C [11]: 97.7%
viability, T/C (second compound 10 µM, first compound 0.0999 µM): 81.1%
viability, T/C [12]: 71.1%
